{"source": "ChEMBL document CHEMBL1147075", "about": "“Immunotherapeutic activity of a conjugate of a Toll-like receptor 7 ligand” (Proc Natl Acad Sci U S A, 2007)", "key": {"BMDM": {"tested_on": "BMDM", "test": "Induction of cytokine release in mouse BMDM cells at 0.01 to 10 uM after 24 hrs by ELISA", "format": "functional, cell-based"}, "Bacillus anthracis": {"tested_on": "Bacillus anthracis", "test": "Protection against Bacillus anthracis infection in A/J mouse", "format": "functional, organism-based"}}, "note": "Active and inactive are the calls of the source. The calls are words filed in the database; no cut-off is given here.", "data": [{"smiles": "COCCOc1nc(N)c2nc(O)n(Cc3ccc(C=O)cc3)c2n1", "values": [{"measurement": "Activity", "setting": "BMDM", "value": "Active"}, {"measurement": "Activity", "setting": "Bacillus anthracis", "value": "inactive"}]}]}
